Results taken from the CheMixHub viscosity set.

Test: xn = mol fraction of the nth substance listed

CC(C)=O + c1ccccc1
Conditions | viscosity [mPa·s]
293.15 K, 101 kPa, x1 = 0.086 | 0.598
293.15 K, 101 kPa, x1 = 0.1 | 0.592
293.15 K, 101 kPa, x1 = 0.1304 | 0.581
293.15 K, 101 kPa, x1 = 0.248 | 0.535
293.15 K, 101 kPa, x1 = 0.269 | 0.528
293.15 K, 101 kPa, x1 = 0.287 | 0.513
293.15 K, 101 kPa, x1 = 0.4005 | 0.47
293.15 K, 101 kPa, x1 = 0.408 | 0.471
293.15 K, 101 kPa, x1 = 0.5661 | 0.416
293.15 K, 101 kPa, x1 = 0.587 | 0.414
293.15 K, 101 kPa, x1 = 0.6783 | 0.385
293.15 K, 101 kPa, x1 = 0.767 | 0.376
293.15 K, 101 kPa, x1 = 0.7899 | 0.357
293.15 K, 101 kPa, x1 = 0.864 | 0.362
293.15 K, 101 kPa, x1 = 0.9053 | 0.332
293.16 K, 101 kPa, x1 = 0.1304 | 0.581
293.16 K, 101 kPa, x1 = 0.287 | 0.513
293.16 K, 101 kPa, x1 = 0.4005 | 0.47
293.16 K, 101 kPa, x1 = 0.5661 | 0.416
293.16 K, 101 kPa, x1 = 0.6783 | 0.385
293.16 K, 101 kPa, x1 = 0.7899 | 0.357
293.16 K, 101 kPa, x1 = 0.9053 | 0.332
298.15 K, 101 kPa, x1 = 0.092 | 0.5569
298.15 K, 101 kPa, x1 = 0.1304 | 0.534
298.15 K, 101 kPa, x1 = 0.1895 | 0.5185
298.15 K, 101 kPa, x1 = 0.2364 | 0.4968
298.15 K, 101 kPa, x1 = 0.287 | 0.484
298.15 K, 101 kPa, x1 = 0.2986 | 0.4766
298.15 K, 101 kPa, x1 = 0.3321 | 0.4654
298.15 K, 101 kPa, x1 = 0.4005 | 0.446
298.15 K, 101 kPa, x1 = 0.4076 | 0.4368
298.15 K, 101 kPa, x1 = 0.4692 | 0.4188
298.15 K, 101 kPa, x1 = 0.49 | 0.4158
298.15 K, 101 kPa, x1 = 0.5552 | 0.3985
298.15 K, 101 kPa, x1 = 0.5608 | 0.3975
298.15 K, 101 kPa, x1 = 0.5661 | 0.401
298.15 K, 101 kPa, x1 = 0.6629 | 0.3692
298.15 K, 101 kPa, x1 = 0.6783 | 0.375
298.15 K, 101 kPa, x1 = 0.7262 | 0.3546
298.15 K, 101 kPa, x1 = 0.7691 | 0.3451
298.15 K, 101 kPa, x1 = 0.7899 | 0.351
298.15 K, 101 kPa, x1 = 0.808 | 0.3384
298.15 K, 101 kPa, x1 = 0.8946 | 0.3203
298.15 K, 101 kPa, x1 = 0.9053 | 0.33
298.16 K, 101 kPa, x1 = 0.1304 | 0.534
298.16 K, 101 kPa, x1 = 0.287 | 0.484
298.16 K, 101 kPa, x1 = 0.4005 | 0.446
298.16 K, 101 kPa, x1 = 0.5661 | 0.401
298.16 K, 101 kPa, x1 = 0.6783 | 0.375
298.16 K, 101 kPa, x1 = 0.7899 | 0.351
298.16 K, 101 kPa, x1 = 0.9053 | 0.33
303.15 K, 101 kPa, x1 = 0.086 | 0.523
303.15 K, 101 kPa, x1 = 0.1 | 0.518
303.15 K, 101 kPa, x1 = 0.248 | 0.475
303.15 K, 101 kPa, x1 = 0.269 | 0.469
303.15 K, 101 kPa, x1 = 0.2875 | 0.456
303.15 K, 101 kPa, x1 = 0.408 | 0.423
303.15 K, 101 kPa, x1 = 0.4185 | 0.417
303.15 K, 101 kPa, x1 = 0.5098 | 0.392
303.15 K, 101 kPa, x1 = 0.5498 | 0.382
303.15 K, 101 kPa, x1 = 0.587 | 0.375
303.15 K, 101 kPa, x1 = 0.6652 | 0.356
303.15 K, 101 kPa, x1 = 0.767 | 0.346
303.15 K, 101 kPa, x1 = 0.7851 | 0.331
303.15 K, 101 kPa, x1 = 0.864 | 0.332
303.15 K, 101 kPa, x1 = 0.8895 | 0.312
303.16 K, 101 kPa, x1 = 0.2875 | 0.456
303.16 K, 101 kPa, x1 = 0.4185 | 0.417
303.16 K, 101 kPa, x1 = 0.5098 | 0.392
303.16 K, 101 kPa, x1 = 0.5498 | 0.382
303.16 K, 101 kPa, x1 = 0.6652 | 0.356
303.16 K, 101 kPa, x1 = 0.7851 | 0.331
303.16 K, 101 kPa, x1 = 0.8895 | 0.312
307.35 K, 101.33 kPa, x1 = 0.1115 | 0.492
307.35 K, 101.33 kPa, x1 = 0.3573 | 0.419
307.35 K, 101.33 kPa, x1 = 0.4938 | 0.382
307.35 K, 101.33 kPa, x1 = 0.5562 | 0.374
307.35 K, 101.33 kPa, x1 = 0.6464 | 0.352
307.35 K, 101.33 kPa, x1 = 0.8853 | 0.308
313.15 K, 101 kPa, x1 = 0.086 | 0.464
313.15 K, 101 kPa, x1 = 0.1 | 0.46
313.15 K, 101 kPa, x1 = 0.248 | 0.424
313.15 K, 101 kPa, x1 = 0.269 | 0.419
313.15 K, 101 kPa, x1 = 0.408 | 0.378
313.15 K, 101 kPa, x1 = 0.587 | 0.344
313.15 K, 101 kPa, x1 = 0.767 | 0.32
313.15 K, 101 kPa, x1 = 0.864 | 0.309
323.15 K, 101 kPa, x1 = 0.086 | 0.436
323.15 K, 101 kPa, x1 = 0.1 | 0.436
323.15 K, 101 kPa, x1 = 0.248 | 0.404
323.15 K, 101 kPa, x1 = 0.269 | 0.4
323.15 K, 101 kPa, x1 = 0.408 | 0.361
323.15 K, 101 kPa, x1 = 0.587 | 0.33
323.15 K, 101 kPa, x1 = 0.767 | 0.309
